Where two headings read alike, the source gives them in different places. Marks after values point to notes of the source that are not given here.
Tests used:
[1] = sustained elevation of gastric pH; cited from earlier work
[2] = Predicted gefitinib exposure (empirical Bayesian estimates), inter- and intra-patient comparison with/without ILD; format: in vivo, Japanese patients with NSCLC; conditions: human, plasma, oral, 250 mg
Procedure: When estimating the exposure at first dosing and at steady state, time-dependent pharmacokinetics were not assumed. Thus, both exposures at first dosing and steady state can be theoretically derived if at least one plasma concentration at either first dosing or steady state is available. Individual exposures were predicted based on patients’ dosing history, assuming steady state at 144 h after the first dosing. […] Serum concentration of AGP were likewise determined at first dosing and at steady state.
AUC0–24 and Cmax were chosen as exposure metrics.

[3] = system: CYP3A4; conditions: in vitro and in vivo studies; cited from earlier work
[4] = cited from earlier work
[5] = system: human AGP; conditions: cited from earlier work
[6] = system: Japanese patients with NSCLC; test: Multivariate logistic regression of ILD with gefitinib exposure and other risk factors; format: in vivo; conditions: for OR estimate (95% CI) for acute ILD: Age (≥55 vs <55 years): gefitinib-treated patients
Procedure: Patients with and without ILD, in whom pharmacokinetic measurements were available, were included in this analysis. […] A multivariate logistic regression model was used in this analysis; the analysis was performed using SAS version 9.3. […] In addition, the interaction of smoking history and normal lung coverage, and the interaction of the severity of pre-existing ILD and normal lung coverage were also studied. In addition, pharmacokinetic exposure parameters were divided into four quartiles (see “Results”) and investigated as risk factors. For association with ILD risk, the mid-1, mid-2, and high-exposure groups were compared with the low-exposure group.

[7] = Analysis 1 (PK parameter AUC0–24, single dose)
[8] = Analysis 1, gefitinib exposure after a single dose
[9] = Analysis 2 (PK parameter AUC0–24,ss)
[10] = Analysis 2, gefitinib exposure at steady state
[11] = Analysis 3 (PK parameter Cmax, single dose)

Cmax ([2]; after the first dosing, patients with ILD, value printed in box plot Fig. 1a, read-out: Cmax): 214 ng/mL
Cmax ([2]; after the first dosing, patients without ILD, value printed in box plot Fig. 1a, read-out: Cmax): 157 ng/mL
AUC(0-t) ([2]; after the first dosing, patients with ILD, Fig. 1b, read-out: AUC0-24): 3970 ng·h/mL
AUC(0-t) ([2]; after the first dosing, patients without ILD, Fig. 1b, read-out: AUC0-24): 2990 ng·h/mL
Cmax ([2]; intra-patient (n = 19), at the time of ILD development, Fig. 2a, read-out: Cmax): 679 ng/mL
AUC(0-t) ([2]; intra-patient (n = 19), at the time of ILD development, Fig. 2b, read-out: AUC0-24): 13600 ng·h/mL
Cmax ([2]; intra-patient (n = 19), at time other than ILD development (steady state), Fig. 2a, read-out: Cmax): 517 ng/mL
AUC(0-t) ([2]; intra-patient (n = 19), at time other than ILD development (steady state), Fig. 2b, read-out: AUC0-24): 10100 ng·h/mL
Cmax ([2]; steady state, 250 mg once daily, patients without ILD, Fig. 1d, read-out: Cmax,ss): 434 ng/mL
AUC(0-t) ([2]; steady state, patients with ILD, Fig. 1e, read-out: AUC0-24,SS): 10600 ng·h/mL
Cmax ([2]; steady state, patients with ILD, Fig. 1d, read-out: Cmax,ss): 517 ng/mL
AUC(0-t) ([2]; steady state, patients without ILD, Fig. 1e, read-out: AUC0-24,SS): 8830 ng·h/mL
OR estimate (95% CI) for acute ILD: Duration of NSCLC ≥1 vs <0.5 years [6, 7]: 0.37 (0.14–0.95)
OR estimate (95% CI) for acute ILD: Interaction of pre-existing IP and normal lung coverage [6, 7]: 0.37 (0.02–6.82)
OR estimate (95% CI) for acute ILD: Interaction of smoking history and normal lung coverage [6, 7]: 0.6 (0.09–4.12)
OR estimate (95% CI) for acute ILD: Normal lung coverage (10%–50% vs 60%–100%) [6, 7]: 3.39 (0.63–18.31)
OR estimate (95% CI) for acute ILD: Pre-existing IP (yes vs no) [6, 7]: 4.01 (0.37–43.22)
OR estimate (95% CI) for acute ILD: WHO performance status 1 vs 0 [6, 7]: 0.59 (0.2–1.68)
OR estimate (95% CI) for acute ILD: WHO performance status 2–3 vs 0 [6, 7]: 1.75 (0.48–6.33)
OR estimate (95% CI) for acute ILD: Age (≥55 vs <55 years) [6, 7]: 1.86 (0.5–6.88)
OR estimate (95% CI) for acute ILD: AUC0–24 Quartile 2 vs Quartile 1 [6, 8]: 0.68 (0.2–2.32)
OR estimate (95% CI) for acute ILD: AUC0–24 Quartile 3 vs Quartile 1 [6, 8]: 0.62 (0.18–2.12)
OR estimate (95% CI) for acute ILD: AUC0–24 Quartile 4 vs Quartile 1 [6, 8]: 3.35 (1.14–9.88)
OR estimate (95% CI) for acute ILD: Duration of NSCLC ≥1 vs <0.5 years [6, 9]: 0.57 (0.19–1.69)
OR estimate (95% CI) for acute ILD: Interaction of pre-existing IP and normal lung coverage [6, 9]: 0.25 (0.01–6.8)
OR estimate (95% CI) for acute ILD: Interaction of smoking history and normal lung coverage [6, 9]: 0.14 (0.01–1.52)
OR estimate (95% CI) for acute ILD: Pre-existing IP (yes vs no) [6, 9]: 4.49 (0.33–60.44)
OR estimate (95% CI) for acute ILD: WHO performance status 1 vs 0 [6, 9]: 0.55 (0.19–1.62)
OR estimate (95% CI) for acute ILD: WHO performance status 2–3 vs 0 [6, 9]: 1.37 (0.35–5.39)
OR estimate (95% CI) for acute ILD: Age (≥55 vs <55 years) [6, 9]: 1.54 (0.36–6.6)
OR estimate (95% CI) for acute ILD: Normal lung coverage (10%–50% vs 60%–100%) ([6]; Analysis 2 (PK parameter AUC0–24,ss), p<0.05): 9.47 (1.14–78.84)*
OR estimate (95% CI) for acute ILD: AUC0–24,ss Quartile 2 vs Quartile 1 [6, 10]: 1.2 (0.27–5.32)
OR estimate (95% CI) for acute ILD: AUC0–24,ss Quartile 3 vs Quartile 1 [6, 10]: 1.71 (0.42–6.94)
OR estimate (95% CI) for acute ILD: AUC0–24,ss Quartile 4 vs Quartile 1 [6, 10]: 2.09 (0.5–8.74)
OR estimate (95% CI) for acute ILD: Duration of NSCLC ≥1 vs <0.5 years [6, 11]: 0.32 (0.12–0.83)
OR estimate (95% CI) for acute ILD: Interaction of pre-existing IP and normal lung coverage [6, 11]: 0.51 (0.03–9.56)
OR estimate (95% CI) for acute ILD: Interaction of smoking history and normal lung coverage [6, 11]: 0.56 (0.08–3.96)
Compound: COc1cc2ncnc(Nc3ccc(F)c(Cl)c3)c2cc1OCCCN1CCOCC1 [gefitinib]
decrease of bioavailability [1]: 47%
enzyme involved in the metabolic clearance [3]: CYP3A4 is the major enzyme
increase of AUC of gefitinib ([4]; gefitinib 250 mg in the presence of itraconazole): 78%
increase of AUC of gefitinib ([4]; gefitinib 500 mg in the presence of itraconazole): 61%
binding to human AGP ([5]; at 0.05 mg/mL): 83.0%
binding to human AGP ([5]; at 8 mg/mL): 68.5%

Reference: publication PMC6458983 (Cancer Chemotherapy and Pharmacology, 2019)
